The first test addresses HDM2 (Homo sapiens (Human), UniProt Q00987). The experiment in a line: FRET assay (FRET IC50 of Tables 1-11).
Conditions: not given
It counts as binding.
HDM2 (truncated, residues 17 to 125, containing p53 binding surface), sequence (Q00987 17-125): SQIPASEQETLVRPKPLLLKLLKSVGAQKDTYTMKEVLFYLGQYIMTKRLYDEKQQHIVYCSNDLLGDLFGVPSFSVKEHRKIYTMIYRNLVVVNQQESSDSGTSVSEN
HDM2, sequence (Q00987 17-125): as above
One may read the IC50 as the concentration that gives 50% inhibition. A low value points to greater potency. Take “6-{[(1R)-1-cyclopropylethyl]ammo}-8-phenyl-7-[4-(trifluoromethyl)benzyl]-7H-purine-2-carboxylic acid [Example 1.96]”: the IC50 is 371 nM.

Compound `COc1ccc(C)cc1-c1nc2nc(C(=O)O)nc(N[C@H](C)C3CC3(F)F)c2n1Cc1ccc(C(F)(F)F)cc1` (stereo partly drawn) [Example 7.19, 6-{[(1R)-1-(2,2-difluorocyclopropyl)ethyl]amino}-8-(2-methoxy-5-methylphenyl)-7-[4-(trifluoromethyl)benzyl]-7H-purine-2-carboxylic acid] registered a half-maximal inhibitory concentration (IC50) of 72.2 nM.

The test is the same for the next values; noted with them: Table 9.
`C[C@@H](Nc1nc(C(=O)O)nc2nc(N3CCCCC3Cc3ccccc3)n(Cc3ccc(C(F)(F)F)cc3)c12)C1CCC1` (stereo partly drawn) [Example 9.3, 8-(2-benzylpiperidin-1-yl)-6-{[(1R)-1-cyclobutylethyl]amino}-7-[4-(trifluoromethyl)benzyl]-7H-purine-2-carboxylic acid] displayed an IC50 of 20.7 nM.

In another test the target is HDM2 (truncated, residues 17 to 125, containing p53 binding surface) (Homo sapiens (Human), UniProt Q00987). The experiment in a line: HDM2 FRET assay (inhibition of binding of FITC labeled p53-site peptide to HDM2). The note with it: Table 16. The source says:
IC50 DETERMINATIONS: Dose-response curves were plotted from the inhibition data, from 10 point serial dilutions of inhibitory compounds. Concentration of compound was plotted against em520/Cem495 ratio signal. To generate IC50 values, the dose-response curves were fitted to a standard sigmoidal curve and IC50 values were derived by nonlinear regression analysis.
For the compound `C[C@H]1CC[C@H](Cn2c(N3CCCC4COCCC43)nc3nc(-c4n[nH]c(=O)o4)nc(-c4cncc(Cl)c4)c32)CC1` (single isomer, unassigned) [Example 16.123, 5-{6-(5-chloropyridin-3-yl)-8-(hexahydro-2H-pyrano[4,3-b]pyridin-1(5H)-yl)-7-[(trans-4-methylcyclohexyl)methyl]-7H-purin-2-yl}-1,3,4-oxadiazol-2(3H)-one], the 50% inhibitory concentration (IC50) was 59.1 nM. `C[C@H]1CC[C@H](Cn2c(N3CCOC4CCCCC43)nc3nc(-c4noc(=O)[nH]4)nc(-c4cccc(Cl)c4)c32)CC1` (single isomer, unassigned) [Example 16.78, 3-(6-(3-chlorophenyl)-7-[(trans-4-methylcyclohexyl)methyl]-8-(octahydro-4H-1,4-benzoxazin-4-yl)-7H-purin-2-yl]-1,2,4-oxadiazol-5(4H)-one] displayed an IC50 of 1.4 nM.

Turning to `C[C@H]1CC[C@H](Cn2c(N3CCCC4COCCC43)nc3nc(-c4n[nH]c(=O)o4)nc(-c4cncc(Cl)c4)c32)CC1` (single isomer, unassigned) [Example 16.122, 5-{6-(5-chloropyridin-3-yl)-8-(hexahydro-2H-pyrano[4,3-b]pyridin-1(5H)-yl)-7-[(trans-4-methylcyclohexyl)methyl]-7H-purin-2-yl}-1,3,4-oxadiazol-2(3H)-one], the IC50 was 203 nM. Compound `C[C@H]1CC[C@H](Cn2c(N3CCCC4COCCC43)nc3nc(-c4noc(=O)[nH]4)nc(-c4cccc(Cl)c4)c32)CC1` (single isomer, unassigned) [Example 16.119, 3-{6-[3-chlorophenyl)-8-(hexahydro-2H-pyrano[4,3-b]pyridin-1(5H)-yl)-7-[(trans-4-methylcyclohexyl)methyl]-7H-purin-2-yl}-1,2,4-oxadiazol-5(4H)-one] returned an IC50 of 60.9 nM.

Staying with this test, now noted: Table 18.
On to `CC([C@H]1CC[C@H](C)CC1)n1c(N2CCOC3CCCC32)nc2nc(-c3n[nH]c(=O)o3)nc(-c3cccc(Cl)c3)c21` (single isomer, unassigned) [Example 18.43, 5-{6-(3-chlorophenyl)-8-(hexahydrocyclopenta[b][1,4]oxazin-4(4aH)-yl)-7-[1-(trans-4-methylcyclohexyl)ethyl]-7H-purin-2-yl}-1,3,4-oxadiazol-2(3H)-one], for which the IC50 was 14 nM. `CC([C@H]1CC[C@H](C)CC1)n1c(N2CCOC3CCCC32)nc2nc(-c3noc(=O)[nH]3)nc(-c3cncc(Cl)c3)c21` (single isomer, unassigned) [Example 18.52, 3-{6-(5-chloropyridin-3-yl)-8-(hexahydrocyclopenta[b][1,4]oxazin-4(4aH)-yl)-7-[1-(trans-4-methylcyclohexyl)ethyl]-7H-purin-2-yl}-1,2,4-oxadiazol-5(4H)-one] had an IC50 of 5.44 nM.

The same test, now with this note: Table 23.
Compound `COC(c1nc2nc(-c3n[nH]c(=O)o3)nc(-c3cccc(Cl)c3)c2n1C[C@H]1CC[C@H](C)CC1)C1CCCCC1` (mixture of isomers) [Example 23.15, 5-{6-(3-chlorophenyl)-8-[cyclohexyl(methoxy)methyl]-7-[(trans-4-methylcyclohexyl)methyl]-7H-purin-2-yl}-1,3,4-oxadiazol-2(3H)-one] gave an IC50 of 23 nM. On to `CC(c1ccccc1C#N)c1nc2nc(-c3noc(=O)[nH]3)nc(-c3cncc(Cl)c3)c2n1C[C@H]1CC[C@H](C)CC1` (mixture of isomers) [Example 23.116, 2-{1-[6-(5-chloropyridin-3-yl)-7-[(trans-4-methylcyclohexyl)methyl]-2-(5-oxo-4,5-dihydro-1,2,4-oxadiazol-3-yl)-7H-purin-8-yl]ethyl}benzonitrile], for which the IC50 is 2.38 nM. The same measure, in the same setting: with `CC(F)(c1ncccc1F)c1nc2nc(-c3noc(=O)[nH]3)nc(-c3cncc(Cl)c3)c2n1C[C@H]1CC[C@H](C)CC1` (single isomer, unassigned) [Example 23.98, 3-{6-(5-chloropyridin-3-yl)-8-[1-fluoro-1-(3-fluoropyridin-2-yl)ethyl]-7-[(trans-4-methylcyclohexyl)methyl]-7H-purin-2-yl}-1,2,4-oxadiazol-5(4H)-one] the figure was 9.74 nM; with `COC(C)(c1nc2nc(-c3n[nH]c(=O)o3)nc(-c3cncc(Cl)c3)c2n1C[C@H]1CC[C@H](C)CC1)C1CCCC1` (mixture of isomers) [Example 23.72, 5-{6-(5-chloropyridin-3-yl)-8-(1-cyclopentyl-1-methoxyethyl)-7-[(trans-4-methylcyclohexyl)methyl]-7H-purin-2-yl}-1,3,4-oxadiazol-2(3H)-one], 2.6 nM. `CC(F)(c1ccccn1)c1nc2nc(-c3noc(=O)[nH]3)nc(-c3cccc(Cl)c3)c2n1C[C@H]1CC[C@H](C)CC1` (single isomer, unassigned) [Example 23.30, 3-{6-(3-chlorophenyl)-8-(1-fluoro-1-pyridin-2-ylethyl)-7-[(trans-4-methylcyclohexyl)methyl]-7H-purin-2-yl}-1,2,4-oxadiazol-5(4H)-one] showed an IC50 of 6.7 nM.

`C[C@H]1CC[C@H](Cn2c(C(O)C3CCCCC3)nc3nc(-c4noc(=O)[nH]4)nc(-c4cccc(Cl)c4)c32)CC1` (mixture of isomers) [Example 23.5, 3-{6-(3-chlorophenyl)-8-[cyclohexyl(hydroxy)methyl]-7-[(trans-4-methylcyclohexyl)methyl]-7H-purin-2-yl}-1,2,4-oxadiazol-5(4H)-one] showed a 50% inhibitory concentration (IC50) of 7.17 nM. `CC(F)(c1ccccc1F)c1nc2nc(-c3n[nH]c(=O)o3)nc(-c3cncc(Cl)c3)c2n1C[C@H]1CC[C@H](C)CC1` (single isomer, unassigned) [Example 23.32, 5-{6-(5-chloropyridin-3-yl)-8-[1-fluoro-1-(2-fluorophenyl)ethyl]-7-[(trans-4-methylcyclohexyl)methyl]-7H-purin-2-yl}-1,3,4-oxadiazol-2(3H)-one] gave an IC50 of 16 nM.

`CC1CCCCC1(F)c1nc2nc(-c3n[nH]c(=O)o3)nc(-c3cncc(Cl)c3)c2n1C[C@H]1CC[C@H](C)CC1` (single isomer, unassigned) [Example 23.83, 5-{6-(5-chloropyridin-3-yl)-8-(1-fluoro-2-methylcyclohexyl)-7-[(trans-4-methylcyclohexyl)methyl]-7H-purin-2-yl}-1,3,4-oxadiazol-2(3H)-one]: the half-inhibitory concentration (IC50) turned out to be 6.31 nM.

With `CC(F)(c1ccccc1F)c1nc2nc(-c3noc(=O)[nH]3)nc(-c3cncc(Cl)c3)c2n1C[C@H]1CC[C@H](C)CC1` (single isomer, unassigned) [Example 23.34, 3-{6-(5-chloropyridin-3-yl)-8-[1-fluoro-1-(2-fluorophenyl)ethyl]-7-[(trans-4-methylcyclohexyl)methyl]-7H-purin-2-yl}-1,2,4-oxadiazol-5(4H)-one], the IC50 was determined as 9.3 nM. `CC(F)(c1ccccn1)c1nc2nc(-c3n[nH]c(=O)o3)nc(-c3cccc(Cl)c3)c2n1C[C@H]1CC[C@H](C)CC1` (single isomer, unassigned) [Example 23.37, 5-{6-(3-chlorophenyl)-8-[1-fluoro-1-(pyridin-2-yl)ethyl]-7-[{trans-4-methylcyclohexyl)methyl]-7H-purin-2-yl}-1,3,4-oxadiazol-2(3H)-one] registered an IC50 of 9.65 nM. `COC(C)(c1cccc(Cl)c1F)c1nc2nc(-c3n[nH]c(=O)o3)nc(-c3cncc(Cl)c3)c2n1C[C@H]1CC[C@H](C)CC1` (single isomer, unassigned) [Example 23.73, 5-{8-[1-(3-chloro-2-fluorophenyl)-1-methoxyethyl]-6-(5-chloropyridin-3-yl)-7-[(trans-4-methylcyclohexyl)methyl]-7H-purin-2-yl}-1,3,4-oxadiazol-2(3H)-one]: the IC50 is 0.623 nM. With `CC1COCCC1(F)c1nc2nc(-c3noc(=O)[nH]3)nc(-c3cncc(Cl)c3)c2n1C[C@H]1CC[C@H](C)CC1` (single isomer, unassigned) [Example 23.95, 3-{6-(5-chloropyridin-3-yl)-8-(4-fluoro-3-methyltetrahydro-2H-pyran-4-yl)-7-[(trans-4-methylcyclohexyl)methyl]-7H-purin-2-yl}-1,2,4-oxadiazol-5(4H)-one], the IC50 was 4.33 nM.

The values above are taken from patent publication US9540377B2, “2,6,7,8 substituted purines as HDM2 inhibitors” (Merck Sharp & Dohme Corp., priority 2013, dated 2017).
